Counter-ions that a name gives are not always drawn.
Tested on: basilar arteries
Assay: Constriction of isolated basilar artery segments of pigs (serotonin-like response, % of response to serotonin)
Details: Sus scrofa; constrictive response expressed as percentage of previous response to serotonin (3×10^-7 M); Krebs-Henseleit solution, 37° C.; read-out: IC50 (the source's name)
Source text: The compounds of formula (I), the pharmaceutically acceptable acid-additionsalts and stereochemically isomeric forms thereof have interesting pharmacological properties: they show 5HT1-like agonistic activity. The compounds of the present invention have a remarkable vasoconstrictor activity. They are useful to prevent and treat conditions which are related to vasodilatation. For instance, they are useful in the treatment of conditions characterized by or associated with cephalic pain, e.g. cluster headache and headache associated with vascular disorders, especially migraine. These compounds are also useful in the treatment of venous insufficiency and in the treatment of conditions associated with hypotension. The vasoconstrictor activity of the compounds of formula (I) can be determined using an in vitro-test as is described in "Instantaneous changes of alpha-adrenoreceptor affinity caused by moderate cooling in canine cutaneous veins" in the American Journal of Physiology 234(4), H330-H337, 1978; or in the test described in the pharmacological example, wherein the serotonin-like response of the compounds of the present invention was tested on the basilar arteries of pigs.
Segments of basilar arteries taken from pigs (anaesthetised with sodium pentobarbital) were mounted for recording of isometric tension in organ baths. The preparations were bathed in Krebs--Henseleit solution. The solution was kept at 37° C. and gassed with a mixture of 95% O2 -5% CO2. The preparations were stretched until a stable basal tension of 2 grams was obtained.
The preparations were made to constrict with serotonin (3×10^-7 M). The response to the addition of serotonin was measured and subsequently the serotonin was washed away. This procedure was repeated until stable responses were obtained. Subsequently the test compound was administered to the organ bath and the constriction of the preparation was measured. This constrictive response was expressed as a percentage of the response to serotonin as measured previously.

Structure (SMILES) | EC50 [µM]
c1cnc2c(c1)CCC(CNCCCNC1=NCCCN1)O2 (racemic) [Co. No. 2, N-[(3,4-dihydro-2H-pyrano[2,3-b]pyridin-2-yl)methyl]-N'-(1,4,5,6-tetrahydro-2-pyrimidinyl)-1,3-propanediamine dihydrochloride. 2-propanolate (2:1). monohydrate] | 0.13
[O-][n+]1cccc2c1OC(CNCCCNc1ncccn1)CC2 (racemic) [Co. No. 3, (±)-N-(3,4-dihydro-2H-pyrano[2,3-b]pyridon-2-yl)methyl]-N'-2-pyrimidinyl-1,3-propanediamine, N-oxide ethanedioate (2:1). monohydrate] | 0.34
CSc1nccc(NCCCNCC2CCc3cccnc3O2)n1 (racemic) [Co. No. 5] | 0.26

The next compounds have a lower EC50 than those just listed; values first:

EC50 [µM] | Structure (SMILES)
0.071 | c1cnc(NCCCNCC2CCc3cccnc3O2)nc1 (racemic) [Co. No. 1, (±)-N-[(3,4-dihydro-2H-pyrano[2,3-b]-pyridin-2-yl)methyl]-N'-2-pyrimidinyl-1,3-propanediamine trihydrochloride. 2-propanolate(1:1). monohydrate]
0.12 | c1ccc(NCCCNCC2CCc3cccnc3O2)nc1 (racemic) [Co. No. 6]

Reference: patent publication US5691344A, “Vasoconstrictive substituted dihydropyranopyridines” (Janssen Pharmaceutica, N.V., priority 1993, dated 1997)
